From patent US9326985B2, “Heteroaryl pyridone and aza-pyridone amide compounds” (Genentech, Inc., priority 2013, dated 2016)

Legend:
[1] = biological target: T1, full length human wildtype Btk (Homo sapiens, UniProt Q06187); assay: Biochemical Btk Assay (BTK LC3K)
T1 construct: V5 (C); 6xHis (C); made in house; host or cells: Sf9 insect cells (baculovirus, pFastBac)
Experimental: A generalized procedure for a standard biochemical Btk, Kinase Assay that can be used to test Formula I compounds is as follows. A master mix minus Btk enzyme is prepared containing 1× Cell Signaling kinase buffer (25 mM Tris-HCl, pH 7.5, 5 mM beta-glycerophosphate, 2 mM dithiothreitol, 0.1 mM Na3VO4, 10 mM MgCl2), 0.5 μM Promega PTK Biotinylated peptide substrate 2, and 0.01% BSA. A master mix plus Btk enzyme is prepared containing 1× Cell Signaling kinase buffer, 0.5 μM (micromolar) PTK Biotinylated peptide substrate 2, 0.01% BSA, and 100 ng/well (0.06 mU/well) Btk enzyme. Btk enzyme is prepared as follows: full length human wildtype Btk (accession number NM-000061) with a C-terminal V5 and 6×His tag was subcloned into pFastBac® vector (Invitrogen/Life Technologies) for making baculovirus carrying this epitope-tagged Btk. […] Passage 3 virus is used to infect Sf9 cells to overexpress the recombinant Btk protein. The Btk protein is then purified to homogeneity using Ni-NTA column. […] A solution of 200 μM ATP is prepared in water and adjusted to pH 7.4 with 1N NaOH. A quantity of 1.25 μL (microliter) of compounds in 5% DMSO is transferred to a 96-well ½ area Costar polystyrene plate. Compounds are tested singly and with an 11-point dose-responsive curve (starting concentration is 10 μM; 1:2 dilution). A quantity of 18.75 μL of master mix minus enzyme (as a negative control) and master mix plus enzyme is transferred to appropriate wells in 96-well ½ area costar polystyrene plate. 5 μL of 200 μM ATP is added to that mixture in the 96-well ½ area Costar polystyrene plate for final ATP concentration of 40 μM. The reaction is allowed to incubate for 1 hour at room temperature. The reaction is stopped with Perkin Elmer 1× detection buffer containing 30 mM EDTA, 20 nM SA-APC, and 1 nM PT66 Ab. […] IC50 values are subsequently calculated. Alternatively, the Lanthascreen assay can be used to evaluate Btk activity through quantification of its phosphorylated peptide product. The FRET (Fluorescence Resonance Energy Transfer) that occurs between the fluorescein on the peptide product and the terbium on the detection antibody decreases with the addition of inhibitors of Btk that reduce the phosphorylation of the peptide. In a final reaction volume of 25 uL, Btk (h) (0.1 ng/25 ul reaction) is incubated with 50 mM Hepes pH 7.5, 10 mM MgCl2, 2 mM MnCl2, 2 mM DTT, 0.2 mM NaVO4, 0.01% BSA, and 0.4 uM fluorescein poly-GAT. […] After incubation for 60 minutes at room temperature, the reaction is stopped by the addition of a final concentration of 2 nM Tb-PY20 detection antibody in 60 mM EDTA for 30 minutes at room temperature.

[2] = tested on: CD69 by B lymphocytes in human whole blood activated with goat F(ab')2 anti-human IgM; assay: CD69 Whole Blood Assay (CD69 Hu Blood FACS); format: cell-based; conditions: Lymphocyte, CD69 positive of CD20 positive cells
Experimental: CD69 is a type II C-type lectin involved in lymphocyte migration and cytokine secretion.
Human blood is obtained from healthy volunteers, with the following restrictions: 1 week drug-free, non-smokers. Blood (approximately 20 mls to test 8 compounds) is collected by venipuncture into Vacutainer® (Becton, Dickinson and Co.) tubes with sodium heparin.
Solutions of Formula I compounds at 10 mM in DMSO are diluted 1:10 in 100% DMSO, then are diluted by three-fold serial dilutions in 100% DMSO for a ten point dose-response curve. The compounds are further diluted 1:10 in PBS and then an aliquot of 5.5 μl of each compound is added in duplicate to a 2 ml 96-well plate; 5.5 μl of 10% DMSO in PBS is added as control and no-stimulus wells. Human whole blood—HWB (100 μl) is added to each well. After mixing the plates are incubated at 37° C., 5% CO2, 100% humidity for 30 minutes. Goat F(ab′)2 anti-human IgM (10 μl of a 500 μg/ml solution, 50 μg/ml final) is added to each well (except the no-stimulus wells) with mixing and the plates are incubated for an additional 20 hours. At the end of the 20 hour incubation, samples are incubated with fluorescent labeled antibodies for 30 minutes, at 37° C., 5% CO2, 100% humidity. Include induced control, unstained and single stains for compensation adjustments and initial voltage settings. Samples are then lysed with PharM Lyse™ (BD Biosciences Pharmingen) according to the manufacturer's instructions. Samples are then transferred to a 96 well plate suitable to be run on the BD Biosciences HTS 96 well system on the LSRII machine. Data acquired and Mean Fluorescence Intensity values were obtained using BD Biosciences DIVA Software. Results are initially analyzed by FACS analysis software (Flow Jo).

T1 sequence (Q06187 whole entry): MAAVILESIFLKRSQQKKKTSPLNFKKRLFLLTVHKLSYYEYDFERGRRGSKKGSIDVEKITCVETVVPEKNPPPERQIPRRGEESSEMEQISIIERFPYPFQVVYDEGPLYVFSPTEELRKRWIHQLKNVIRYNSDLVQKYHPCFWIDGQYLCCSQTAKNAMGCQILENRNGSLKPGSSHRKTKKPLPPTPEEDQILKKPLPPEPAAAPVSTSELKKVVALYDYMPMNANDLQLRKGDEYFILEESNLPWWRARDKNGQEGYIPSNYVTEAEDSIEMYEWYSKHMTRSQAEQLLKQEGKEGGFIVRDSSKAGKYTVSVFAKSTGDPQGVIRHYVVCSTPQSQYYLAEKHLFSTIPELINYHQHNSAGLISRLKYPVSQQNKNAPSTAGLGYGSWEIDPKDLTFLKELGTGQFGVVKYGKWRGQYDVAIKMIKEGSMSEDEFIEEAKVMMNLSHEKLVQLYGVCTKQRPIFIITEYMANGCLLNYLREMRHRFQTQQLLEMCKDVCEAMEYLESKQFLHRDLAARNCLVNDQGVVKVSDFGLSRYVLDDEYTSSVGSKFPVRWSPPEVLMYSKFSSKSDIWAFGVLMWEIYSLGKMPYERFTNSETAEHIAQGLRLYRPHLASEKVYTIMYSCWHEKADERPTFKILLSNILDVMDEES

## CCOC1C[C@@H]1C(=O)Nc1cc(-c2ccnc(N3CCn4c(cc5c4CC(C)(C)C5)C3=O)c2CO)cn(C)c1=O (mixture of isomers) [Compound 145, (1S)—N-[5-[2-(7,7-dimethyl-4-oxo-1,2,6,8-tetrahydrocyclopenta[3,4]pyrrolo[3,5-b]pyrazin-3-yl)-3-(hydroxymethyl)-4-pyridyl]-1-methyl-2-oxo-3-pyridyl]-2-ethoxy-cyclopropanecarboxamide]
[1]; Table 2
  Ki: 0.011 µM
[2]; Table 2, anti-IgM stimulation
  IC50: 0.636 µM

## Cn1cc(-c2ccnc(-n3ncc4cc(C(C)(C)C)cc(F)c4c3=O)c2CO)cc(NC(=O)[C@H]2CC23CC3)c1=O (single isomer, unassigned) [Compound 162]
[1]; Table 2
  Ki: 0.005 µM
[2]; Table 2, anti-IgM stimulation
  IC50: 0.786 µM

## Cc1cc(C(=O)Nc2cc(-c3ccnc(N4CCn5c(cc6c5CC(C)(C)C6)C4=O)c3CO)cn(C)c2=O)nn1C [Compound 112, N-[5-[2-(7,7-dimethyl-4-oxo-1,2,6,8-tetrahydrocyclopenta[3,4]pyrrolo[3,5-b]pyrazin-3-yl)-3-(hydroxymethyl)-4-pyridyl]-1-methyl-2-oxo-3-pyridyl]-1,5-dimethyl-pyrazole-3-carboxamide]
[1]; Table 1
  Ki: > 0.5 µM
[2]; Table 1, anti-IgM stimulation
  IC50: > 5.8 µM

## Cn1cc(-c2ccnc(N3CCc4c(cc5n4CC(C)(C)C5)C3=O)c2CO)cc(NC(=O)C2CC2)c1=O [Compound 137, N-[5-[2-(7,7-dimethyl-4-oxo-1,2,6,8-tetrahydropyrido[3,4-b]pyrrolizin-3-yl)-3-(hydroxymethyl)-4-pyridyl]-1-methyl-2-oxo-3-pyridyl]cyclopropanecarboxamide]
[1]; Table 2
  Ki: 0.0285 µM
[2]; Table 2, anti-IgM stimulation
  IC50: 0.616 µM

## Cn1cc(-c2cccc(N3CCn4c(cc5c4CC(C)(C)C5)C3=O)c2CO)cc(NC(=O)C2CC2)c1=O [Compound 129, N-[5-[3-(7,7-dimethyl-4-oxo-1,2,6,8-tetrahydrocyclopenta[3,4]pyrrolo[3,5-b]pyrazin-3-yl)-2-(hydroxymethyl)phenyl]-1-methyl-2-oxo-3-pyridyl]cyclopropanecarboxamide]
[1]; Table 2
  Ki: 0.00378 µM
[2]; Table 2, anti-IgM stimulation
  IC50: 0.0512 µM

## CCOC1C[C@H]1C(=O)Nc1cc(-c2ccnc(N3CCn4c(cc5c4CC(C)(C)C5)C3=O)c2CO)cn(C)c1=O (single isomer, unassigned) [Compound 143]
[1]; Table 2
  Ki: 0.053 µM
[2]; Table 2, anti-IgM stimulation
  IC50: 2.2 µM

## CN1CC[C@]2(C[C@H]2C(=O)Nc2cc(-c3ccnc(-n4ncc5cc(C(C)(C)C)cc(F)c5c4=O)c3CO)cn(C)c2=O)C1 (single isomer, unassigned) [Compound 169]
[1]; Table 2
  Ki: 0.0384 µM
[2]; Table 2, anti-IgM stimulation
  IC50: > 4.8 µM

## Cn1cc(-c2ccnc(N3CCn4c(cc5c4CC(C)(C)C5)C3=O)c2CO)cc(NC(=O)[C@H]2CC23CCC3)c1=O (single isomer, unassigned) [Compound 147]
[1]; Table 2
  Ki: 0.0048 µM
[2]; Table 2, anti-IgM stimulation
  IC50: 0.91 µM

## Cn1cc(-c2cccc(N3CCc4c(cc5n4CCCC5)C3=O)c2CO)cc(NC(=O)C2CC2)c1=O [Compound 139, N-[5-[2-(hydroxymethyl)-3-(1-oxo-3,4,6,7,8,9-hexahydropyrido[3,4-b]indolizin-2-yl)phenyl]-1-methyl-2-oxo-3-pyridyl]cyclopropanecarboxamide]
[1]; Table 2
  Ki: 0.0078 µM
[2]; Table 2, anti-IgM stimulation
  IC50: 0.689 µM

## Cn1cc(-c2cc(F)cc(N3CCn4c(cc5c4CC(C)(C)C5)C3=O)c2CO)cc(NC(=O)[C@H]2C[C@H]2F)c1=O [Compound 176, (1R,2R)—N-[5-[3-(7,7-dimethyl-4-oxo-1,2,6,8-tetrahydrocyclopenta[3,4]pyrrole[3,5-b]pyrazin-3-yl)-5-fluoro-2-(hydroxymethyl)phenyl]-1-methyl-2-oxo-3-pyridyl]-2-fluoro-cyclopropanecarboxamide]
[1]; Table 2
  Ki: 0.0021 µM
[2]; Table 2, anti-IgM stimulation
  IC50: 0.0327 µM

## Cn1cc(-c2ccnc(N3CCn4c(cc5c4CC(C)(C)C5)C3=O)c2CO)cc(NC(=O)C2CC2(F)F)c1=O (stereo not shown) [Compound 116, N-[5-[2-(7,7-dimethyl-4-oxo-1,2,6,8-tetrahydrocyclopenta[3,4]pyrrolo[3,5-b]pyrazin-3-yl)-3-(hydroxymethyl)-4-pyridyl]-1-methyl-2-oxo-3-pyridyl]-2,2-difluoro-cyclopropanecarboxamide]
[1]; Table 1
  Ki: 0.0348 µM
[2]; Table 1, anti-IgM stimulation
  IC50: 0.988 µM
